Experiments:
PNA-Capture = assay: Mismatch analysis with microsphere sensor loaded with PNA-based capture strand (FIG. 8); assay type: binding; details: competition with DNA-QTL for PNA-Cap; 40° C., total well volume 200 μL
Procedure: The approach used in this example involves the competition of quencher labeled target with target for a complementary capture strand on the surface of sensing microspheres.
FIG. 8 is a graph showing mismatch analysis with a microsphere sensor loaded with a PNA-based capture strand (denoted “PNA-Cap”) having a structure shown below. The experiments were performed at 40° C. with a total well volume of 200 μL.

β-secretase enzyme [1] = biological target: T1, β-secretase enzyme (Homo sapiens, UniProt P56817); details: 30 minutes at CRT, Sensor YY, excitation 440 nm, emission 576 nm
Procedure: The resulting solution sensor (“Sensor YY”) was made at the beginning of each experiment by incubating a 200-fold dilution of the master stock of “Sensor SS” with BRPE in a ratio that would provide 250 fmol of the latter in 40 μL of the mixture. To 5 μL of a 300 nM solution of BSEC-3 in assay buffer was added 30 ng of β-secretase enzyme in 5 μL of assay buffer. BSEC-3 has a polypeptide structure as set forth above. After incubating the control and sample mixtures for 30 minutes at CRT, 40 μL of the doped solution sensor (Sensor YY) was added to each well. The plate was shaken inside the plate reader for 60 seconds and the wells were probed for fluorescence intensity by exciting the polymer at 440 nm and measuring the emission intensity at 576 nm using a 475 nm cut-off filter. […] This observed difference was a measure of enzyme activity.

β-secretase enzyme [2] = biological target: T1, β-secretase enzyme; details: 30 minutes at CRT, Sensor SS, excitation 440 nm, emission 530 nm
Procedure: A QTL solution sensor (“Sensor SS”) was prepared by mixing together 56.5 nmol of Avidin (Biotin binding protein, BBP) and 848 nmol of biotinylated PPE polymer (1) in a total volume of 11.3 mL and incubating at CRT for 24 hours. The polymer and the BBP combine with each other through the biotin-avidin interaction to form stable entities. The solution sensor thus prepared was diluted appropriately with buffer at the beginning of each experiment. The structure of polymer (1) is shown below: [drawing 4]
To 5 μL of a 400 nM solution of BSEC-1 (structure shown below) in assay buffer in a 384-well plate was added 30 ng of β-secretase enzyme dissolved in 5 μL of assay buffer.
The mixture was made in triplicate and incubated for 30 minutes at CRT. The control wells contained only peptide and no enzyme. After incubation, a 100-fold dilution of the above solution sensor was added at 20 μL to each well. The plate was shaken inside the microplate reader and the wells were probed by exciting the polymer at 440 nm and measuring the emission intensity at 530 nm using a 475 nm cut-off filter. […] The difference in fluorescence was a measure of enzyme activity.

T1 sequence (P56817 46-501): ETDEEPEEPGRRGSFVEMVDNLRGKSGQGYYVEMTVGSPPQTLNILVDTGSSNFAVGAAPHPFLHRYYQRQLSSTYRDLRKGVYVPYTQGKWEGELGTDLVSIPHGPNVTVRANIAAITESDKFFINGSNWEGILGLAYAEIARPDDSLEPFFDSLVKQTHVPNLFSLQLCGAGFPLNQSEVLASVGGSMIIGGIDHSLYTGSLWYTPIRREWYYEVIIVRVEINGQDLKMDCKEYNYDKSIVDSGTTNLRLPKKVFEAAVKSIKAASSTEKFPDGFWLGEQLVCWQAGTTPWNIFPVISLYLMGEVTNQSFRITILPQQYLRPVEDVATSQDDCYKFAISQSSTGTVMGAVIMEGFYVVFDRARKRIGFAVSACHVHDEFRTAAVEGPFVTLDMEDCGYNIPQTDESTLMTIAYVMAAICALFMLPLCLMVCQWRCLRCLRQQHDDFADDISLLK

Substance: 5′-TGCATATTTAATGGAATTTA-3′ (TGCATATTTAATGGAATTTA; listed as DNA, chemistry not fully specified; the letters are possibly those of the target site) [AA double mismatch target]
- relative fluorescence with increasing amounts of target (PNA-Capture): observed for all targets except

Substance: 5′-TGCATTTTTAATGGTATTTA-3′ (TGCATTTTTAATGGTATTTA; listed as DNA, chemistry not fully specified; the letters are possibly those of the target site) [perfect complement target]
- relative fluorescence with increasing amounts of target (PNA-Capture): much higher

Substance: (AZO)-T-E-E-I-S-E-V-N-L-D-A-E-F-(K-Biotin)-OH [BSEC-3]
- RFU, sample wells containing enzyme (β-secretase enzyme [1]; 5 μL of 300 nM peptide + 30 ng β-secretase): 14,500±200 RFU
- average RFU value, control wells (β-secretase enzyme [1]; 5 μL of 300 nM peptide, no enzyme): 5,200±200 RFU

Substance: (QSY7)-T-E-E-O-S-E-V-N-L-D-A-E-F-(K-Biotin)-OH [BSEC-1]
- average RFU value, sample wells containing enzyme (β-secretase enzyme [2]; 5 μL of 400 nM peptide + 30 ng β-secretase): 8,350±200 RFU
- average RFU value, control wells (only peptide and no enzyme) (β-secretase enzyme [2]; 5 μL of 400 nM peptide, no enzyme): 5,400±200 RFU

Substance: β-secretase enzyme
- average RFU (polymer emission at 530 nm, Sensor SS) after 30 min incubation of 400 nM BSEC-1 with 30 ng β-secretase; control wells with peptide only gave 5,400±200 (BSEC-1): 8350 ± 200 RFU
- average RFU (emission at 576 nm, BRPE-doped Sensor YY) after 30 min incubation of 300 nM BSEC-3 with 30 ng β-secretase; control wells gave 5,200±200 (BSEC-3): 14500 ± 200 RFU

From patent US20040175768A1, “Methods of biosensing using fluorescent polymers and quencher-tether-ligand bioconjugates” (priority 2002, published 2004)
